What was measured:
Format in all cases: in vivo
[1] = system: ryegrass, Italian (italian ryegrass, Lolium multiflorum); test: Test A preemergence soil spray, visual injury rating 0-100; conditions: 10 days, 0 = no effect, 100 = complete control
How it was run: (§1)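 Scale 0–100 (no effect to complete control), visual, versus untreated controls, read 10 days after application. Application: preemergence directed spray onto seeded loam–sand soil, or postemergence to young plants; formulation in non-phytotoxic solvent with surfactant.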

[2] = system: wheat (Triticum aestivum); test: as above; conditions: 10 days, 0 = no effect, 100 = complete control
How it was run: as §1

[3] = system: green foxtail (Setaria viridis); test: as above; conditions: 10 days, 0 = no effect, 100 = complete control
How it was run: as §1

[4] = system: barnyardgrass (Echinochloa crus-galli); test: as above; conditions: 10 days, 0 = no effect, 100 = complete control
How it was run: as §1

kochia (Bassia scoparia) [5] = test: as above; conditions: 10 days, 0 = no effect, 100 = complete control
How it was run: as §1

[6] = system: palmer (palmer amaranth, palmer pigweed, Amaranthus palmeri); test: as above; conditions: 10 days, 0 = no effect, 100 = complete control
How it was run: as §1

[7] = system: oat, wild (wild oat, Avena fatua); test: as above; conditions: 10 days, 0 = no effect, 100 = complete control
How it was run: as §1

[8] = system: blackgrass (Alopecurus myosuroides); test: as above; conditions: 10 days, 0 = no effect, 100 = complete control
How it was run: as §1

soybean (Glycine max) [9] = test: as above; conditions: 10 days, 0 = no effect, 100 = complete control
How it was run: as §1

[10] = system: ragweed (common ragweed, Ambrosia artemisiifolia); test: as above; conditions: 10 days, 0 = no effect, 100 = complete control
How it was run: as §1

corn (Zea mays) [11] = test: as above; conditions: 10 days, 0 = no effect, 100 = complete control
How it was run: as §1

[12] = system: ryegrass, Italian (italian ryegrass, Lolium multiflorum); test: Test A postemergence application, visual injury rating 0-100; conditions: Postemergence, 10 days, 0 is no effect, 100 is complete control
How it was run: as §1

[13] = system: galium (catchweed bedstraw, Galium aparine); test: as above; conditions: Postemergence, 10 days, 0 is no effect, 100 is complete control
How it was run: as §1

[14] = system: wheat (Triticum aestivum); test: as above; conditions: Postemergence, 10 days, 0 is no effect, 100 is complete control
How it was run: as §1

[15] = system: green foxtail (Setaria viridis); test: as above; conditions: Postemergence, 10 days, 0 is no effect, 100 is complete control
How it was run: as §1

[16] = system: barnyardgrass (Echinochloa crus-galli); test: as above; conditions: Postemergence, 10 days, 0 is no effect, 100 is complete control
How it was run: as §1

kochia (Bassia scoparia) [17] = test: as above; conditions: Postemergence, 10 days, 0 is no effect, 100 is complete control
How it was run: as §1

[18] = system: palmer (palmer amaranth, palmer pigweed, Amaranthus palmeri); test: as above; conditions: Postemergence, 10 days, 0 is no effect, 100 is complete control
How it was run: as §1

[19] = system: oat, wild (wild oat, Avena fatua); test: as above; conditions: Postemergence, 10 days, 0 is no effect, 100 is complete control
How it was run: as §1

[20] = system: blackgrass (Alopecurus myosuroides); test: as above; conditions: Postemergence, 10 days, 0 is no effect, 100 is complete control
How it was run: as §1

[21] = system: horseweed (Erigeron canadensis); test: as above; conditions: Postemergence, 10 days, 0 is no effect, 100 is complete control
How it was run: as §1

soybean (Glycine max) [22] = test: as above; conditions: Postemergence, 10 days, 0 is no effect, 100 is complete control
How it was run: as §1

[23] = system: ragweed (common ragweed, Ambrosia artemisiifolia); test: as above; conditions: Postemergence, 10 days, 0 is no effect, 100 is complete control
How it was run: as §1

corn (Zea mays) [24] = test: as above; conditions: Postemergence, 10 days, 0 is no effect, 100 is complete control
How it was run: as §1

rice (Oryza sativa) = test: Test B flooded paddy test, visual plant response rating 0-100; conditions: 250 g ai/ha, Flood, applied to paddy water, evaluated after 13 days
How it was run: (§2)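 Visual scores versus untreated controls were recorded 13 days after treatment of greenhouse-held plants. At the 2-leaf stage, pots were flooded 3 cm above the soil surface and compounds added straight to the water.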

[25] = system: ducksalad (Heteranthera limosa); test: as above; conditions: 250 g ai/ha, Flood, applied to paddy water, evaluated after 13 days
How it was run: as §2

[26] = system: barnyardgrass (Echinochloa crusgalli); test: as above; conditions: 250 g ai/ha, Flood, applied to paddy water, evaluated after 13 days
How it was run: as §2

[27] = system: sedge, umbrella (small-flower umbrella sedge, Cyperus difformis); test: as above; conditions: 250 g ai/ha, Flood, applied to paddy water, evaluated after 13 days
How it was run: as §2

COC(=O)C1C=CC(NC(=O)C2(C)CN(c3cc(Cl)cc(Cl)c3)C(=O)O2)C1 (stereo not shown) [Compound 42]
20: Ragweed plant response rating (0 to 100 scale) ([10]; 125 g ai/ha)
100: Ryegrass, Italian plant response rating (0 to 100 scale) ([1]; 500 g ai/ha) | Foxtail, Green plant response rating (0 to 100 scale) ([3]; 125 g ai/ha) | Foxtail, Green plant response rating (0 to 100 scale) ([3]; 500 g ai/ha) | Barnyardgrass plant response rating (0 to 100 scale) ([4]; 125 g ai/ha) | Barnyardgrass plant response rating (0 to 100 scale) ([4]; 500 g ai/ha) | Amaranth, Palmer plant response rating (0 to 100 scale) ([6]; 125 g ai/ha) | Amaranth, Palmer plant response rating (0 to 100 scale) ([6]; 500 g ai/ha) | Blackgrass plant response rating (0 to 100 scale) ([8]; 500 g ai/ha) | Barnyardgrass plant response rating (0 to 100 scale) ([16]; 125 g ai/ha) | Barnyardgrass plant response rating (0 to 100 scale) ([16]; 500 g ai/ha) | Amaranth, Palmer / Pigweed, Palmer plant response rating (0 to 100 scale) ([18]; 125 g ai/ha) | Amaranth, Palmer / Pigweed, Palmer plant response rating (0 to 100 scale) ([18]; 500 g ai/ha) | Blackgrass plant response rating (0 to 100 scale) ([20]; 125 g ai/ha) | Blackgrass plant response rating (0 to 100 scale) ([20]; 500 g ai/ha) | Corn plant response rating (0 to 100 scale) (corn (Zea mays) [24]; 125 g ai/ha) | Corn plant response rating (0 to 100 scale) (corn (Zea mays) [24]; 500 g ai/ha)
80: Ragweed plant response rating (0 to 100 scale) ([10]; 500 g ai/ha) | Galium plant response rating (0 to 100 scale) ([13]; 500 g ai/ha) | Kochia plant response rating (0 to 100 scale) (kochia (Bassia scoparia) [17]; 125 g ai/ha) | Kochia plant response rating (0 to 100 scale) (kochia (Bassia scoparia) [17]; 500 g ai/ha) | Horseweed plant response rating (0 to 100 scale) ([21]; 125 g ai/ha) | Soybean plant response rating (0 to 100 scale) (soybean (Glycine max) [22]; 500 g ai/ha) | Ragweed plant response rating (0 to 100 scale) ([23]; 500 g ai/ha)
15: Plant response rating, Rice (0 to 100 scale, 0 is no effect and 100 is complete control) (rice (Oryza sativa))
40: Soybean plant response rating (0 to 100 scale) (soybean (Glycine max) [9]; 125 g ai/ha)
95: Plant response rating, Barnyardgrass (0 to 100 scale, 0 is no effect and 100 is complete control) [26] | Plant response rating, Sedge, Umbrella (0 to 100 scale, 0 is no effect and 100 is complete control) [27]
70: Soybean plant response rating (0 to 100 scale) (soybean (Glycine max) [9]; 500 g ai/ha) | Galium plant response rating (0 to 100 scale) ([13]; 125 g ai/ha) | Ragweed plant response rating (0 to 100 scale) ([23]; 125 g ai/ha)
90: Ryegrass, Italian plant response rating (0 to 100 scale) ([1]; 125 g ai/ha) | Wheat plant response rating (0 to 100 scale) ([2]; 125 g ai/ha) | Wheat plant response rating (0 to 100 scale) ([2]; 500 g ai/ha) | Kochia plant response rating (0 to 100 scale) (kochia (Bassia scoparia) [5]; 125 g ai/ha) | Kochia plant response rating (0 to 100 scale) (kochia (Bassia scoparia) [5]; 500 g ai/ha) | Oat, Wild plant response rating (0 to 100 scale) ([7]; 125 g ai/ha) | Oat, Wild plant response rating (0 to 100 scale) ([7]; 500 g ai/ha) | Blackgrass plant response rating (0 to 100 scale) ([8]; 125 g ai/ha) | Corn plant response rating (0 to 100 scale) (corn (Zea mays) [11]; 125 g ai/ha) | Corn plant response rating (0 to 100 scale) (corn (Zea mays) [11]; 500 g ai/ha) | Ryegrass, Italian plant response rating (0 to 100 scale) ([12]; 125 g ai/ha) | Ryegrass, Italian plant response rating (0 to 100 scale) ([12]; 500 g ai/ha) | Wheat plant response rating (0 to 100 scale) ([14]; 125 g ai/ha) | Wheat plant response rating (0 to 100 scale) ([14]; 500 g ai/ha) | Foxtail, Green plant response rating (0 to 100 scale) ([15]; 125 g ai/ha) | Foxtail, Green plant response rating (0 to 100 scale) ([15]; 500 g ai/ha) | Oat, Wild plant response rating (0 to 100 scale) ([19]; 125 g ai/ha) | Oat, Wild plant response rating (0 to 100 scale) ([19]; 500 g ai/ha) | Horseweed plant response rating (0 to 100 scale) ([21]; 500 g ai/ha) | Soybean plant response rating (0 to 100 scale) (soybean (Glycine max) [22]; 125 g ai/ha) | Plant response rating, Ducksalad (0 to 100 scale, 0 is no effect and 100 is complete control) [25]

Reference: US20260285850A1, “SUBSTITUTED OXAZOLIDINONES AND IMIDAZOLINONES AS HERBICIDES” (FMC CORPORATION, priority 2023, published 2026)
